One assay concerns the target T1, FLJ38897-derived protein (Homo sapiens, UniProt P57764).
T1 construct: His-tag (N); made in house; host or cells: Escherichia coli BL21star(DE3)pLysS
T1 sequence (P57764 265-484): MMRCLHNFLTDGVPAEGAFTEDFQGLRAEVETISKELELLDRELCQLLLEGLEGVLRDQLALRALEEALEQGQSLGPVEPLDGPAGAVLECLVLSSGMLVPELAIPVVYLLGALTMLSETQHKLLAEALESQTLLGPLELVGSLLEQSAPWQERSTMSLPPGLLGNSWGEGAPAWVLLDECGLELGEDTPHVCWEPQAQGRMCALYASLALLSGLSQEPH
Kind of assay: SEC/MS interaction analysis, FLJ38897-derived protein (GSDMDC1). The format is binding. As to conditions: spin column method; mixture with protein vs buffer solution alone; data not shown. The source says: (§1) To analyze the interactions between commonly used drugs and proteins expressed from human full-length cDNA clones while keeping both the proteins and the compounds in non-modified, non-immobilized state, size exclusion chromatography (SEC) and mass analysis were used in combination. The specific procedures are shown below.
(§2) The compound-protein mixture prepared in step 1 was subjected to chromatography using an SEC column, the compound and the protein were separated by SEC, and the compound that interacted with the bound compound or protein contained in the protein fraction was analyzed using a mass analyzer.
(§3) Protein concentrations were measured using BCA Protein Assay (PIERCE), in consideration of the purity calculated by SDS-PAGE.
(§4) Mass analysis was performed using LCQ DECA XP (Thermoelectron) or Q-TOF micro (Micromass), equipped with an ESI probe. The LC pump used was Agilent 1100 (Yokogawa Analytical Systems), and the autosampler used was HTC-PAL (CTC Analytics) equipped with a cooling stacker. The SEC column used was a micro-LC column or a 384-well spin column. […]
(§5) In the 384-well spin column method, Unifilter 100 (Whatman), packed with 10 μL (dry volume) of Bio-Gel P6 (BIO-RAD) and swollen with milliQ water, was used as the SEC column. […] The SEC spin column was mounted on an acetonitrile-aliquoted 384-well U-bottom plate and centrifuged; the SEC spin column filtrate, which is a protein fraction, was recovered in 50% acetonitrile. The protein precipitate produced by the acetonitrile was removed via centrifugation and filtration for deproteinization; the resulting filtrate was concentrated by centrifugal concentration and re-dissolved in 10 μL of 50% methanol to obtain a mass analysis sample. The mobile phase supplied to the mass analyzer was 0.1% formic acid/50% methanol solution in the positive ion mode, and 0.1% ammonia/50% methanol solution in the negative ion mode; these mobile phases were used at a flow rate of 40 μL/min. 2-μL of mass analysis samples were injected using an autosampler at 2-minute intervals; the mass spectral intensity of the compound was measured to retrieve the spectral intensity of the pharmaceutical compound contained in the SEC spin column filtrate (protein fraction eluted from SEC).

Another assay addresses T2, FLJ41991-derived protein (Homo sapiens, UniProt P57764, E293G).
T2 construct: His-tag (N); made in house; host or cells: Escherichia coli BL21star(DE3)pLysS (pDEST17)
T2 sequence (P57764 265-484 E293G): T1 sequence (P57764 265-484) with E29G
Nature of the assay: SEC/MS interaction analysis, FLJ41991-derived protein (GSDMDC1). In kind it is binding. As to conditions: for interaction judged from spectrum intensity of the compound in the SEC spin column filtrate (protein fraction eluted from SEC): spin column method, doses of both compound and protein varied.
From the text: as §1, §2, §3, §4, §5

Assay [1] has as its system FLJXXXXX-derived proteins. Kind of assay: SEC/MS spin column interaction analysis of FLJXXXXX-derived proteins and various compounds (Tables 30-1 to 30-4). As to conditions: SEC spin column filtrate, spectral intensity increased with doses of compound and protein. In kind it is binding, human.
The next assay deals with FLJ41550-derived protein. Nature of the assay: SEC/MS interaction analysis, FLJ41550-derived protein (SAMHD1). The format is binding, human.
From the text: as §1, §2, §3, §4, §5

The next assay deals with FLJ20972-derived protein.
From the text: as §1, §2, §3
Mass analysis was performed using LCQ DECA XP (Thermoelectron) or Q-TOF micro (Micromass), equipped with an ESI probe. The LC pump used was Agilent 1100 (Yokogawa Analytical Systems), and the autosampler used was HTC-PAL (CTC Analytics) equipped with a cooling stacker. The SEC column used was a micro-LC column or a 384-well spin column.
The SEC column used for the micro-LC method was a TSKgel super SW2000 (TOSOH) cartridge column (1.0 mm ID×10 mm) or a TSKgel super SW2000 (TOSOH) column (1.0 mm ID×30 mm), with 10 mM ammonium acetate aqueous solution serving as the mobile phase. A conditioning solvent (0.5% formic acid/methanol solution in the positive ion mode, 0.5% ammonia/methanol solution in the negative ion mode) was mixed downstream of the SEC column via a Tee connector; the column was connected to the ESI of the mass analyzer. The flow rate was set at 40 μL/min for the SEC column side, and 10 μL/min for the conditioning solvent side.
Specifically, if the protein and the compound interact with each other, the acceleration of the elution of the compound molecules that are bound to the protein when the protein is overtaking the compound in the SEC column occurs, resulting in a change in the mass chromatogram of the compound depending on the presence or absence of the protein.
as §5

Where [2] appears, read: compound 12.5 μM, protein 10 μM.
The mark [3] stands for this setting: compound 12.5 μM, protein 25 μM.
Where [4] appears, read: compound 62.5 μM, protein 10 μM.
Where [5] appears, read: compound 62.5 μM, protein 25 μM.
[6] abbreviates: spin column method, doses of both compound and protein varied.

Changes are numbered by the printed parent chain. “Also recorded” adds a separate entry of the source. Where two headings read alike, the source gives them in different places.

Consider `OCCN1CCN(CCCN2c3ccccc3Sc3ccc(C(F)(F)F)cc32)CC1` [fluphenazine], for which, on FLJ38897-derived protein, the “interaction judged from mass spectrum peak intensity of the compound in the spin column filtrate” value (“interaction judged … in the spin column filtrate” below) was “there was an interaction”. Further, the “spectrum intensity of the compound in the SEC spin column filtrate” value on FLJ41991-derived protein (compound 12.5 μM, protein 0 μM) came to 87861; at FLJ41991-derived protein (compound 12.5 μM, protein 5 μM), 162795; at FLJ41991-derived protein (setting [2]) it was 434899; on FLJ41991-derived protein (setting [3]) it was 1101486; on FLJ41991-derived protein (compound 25 μM, protein 0 μM), 193639; at FLJ41991-derived protein (compound 25 μM, protein 5 μM) it was 276524. The “spectrum intensity of the compound in the SEC spin column filtrate” value is 843648 on FLJ41991-derived protein (compound 25 μM, protein 10 μM); 1778376 on FLJ41991-derived protein (compound 25 μM, protein 25 μM); 200313 on FLJ41991-derived protein (compound 62.5 μM, protein 0 μM); 1055670 on FLJ41991-derived protein (compound 62.5 μM, protein 5 μM); 3173659 at FLJ41991-derived protein (setting [4]); 6405132 at FLJ41991-derived protein (setting [5]). Further, the “interaction judged from spectrum intensity of the compound in the SEC spin column filtrate (protein fraction eluted from SEC)” value at FLJ41991-derived protein was “concentration-dependent interaction”. In addition, the “FLJ No of the derived protein with which the compound was judged to exhibit a concentration-dependent interaction” value (shortened to “FLJ No of the derived protein”) in assay [1] is “FLJ38897; also recorded: FLJ41991”.

Take `C1CCC(C(CC2CCCCN2)C2CCCCC2)CC1` (stereo not shown) [perhexyline]: the “interaction judged … in the spin column filtrate” value on FLJ38897-derived protein was “there was an interaction”. For the same molecule, the “FLJ No of the derived protein” value in assay [1] (listed as perhexiline) was “FLJ37909; also recorded: FLJ38897”.

`CN1CCN(CCCN2c3ccccc3Sc3ccc(S(=O)(=O)N(C)C)cc32)CC1` [thioproperasine, thioproperazine]: the “spectrum intensity of the compound in the SEC spin column filtrate” value in the assay with FLJ41550-derived protein (compound 12.5 μM, protein 0 μM) stood at 252410; in the assay on FLJ41550-derived protein (compound 12.5 μM, protein 5 μM), 377673; with FLJ41550-derived protein (setting [2]) it was 478699; with FLJ41550-derived protein (setting [3]), 941513; in the assay on FLJ41550-derived protein (compound 25 μM, protein 0 μM) it was 262646; in the assay with FLJ41550-derived protein (compound 25 μM, protein 5 μM), 778927. Further, the “spectrum intensity of the compound in the SEC spin column filtrate” value worked out at 1198533 with FLJ41550-derived protein (compound 25 μM, protein 10 μM); 983016 with FLJ41550-derived protein (compound 25 μM, protein 25 μM); 1132948 with FLJ41550-derived protein (compound 62.5 μM, protein 0 μM); 1457362 in the assay on FLJ41550-derived protein (compound 62.5 μM, protein 5 μM); 2445959 with FLJ41550-derived protein (setting [4]); 2997892 in the assay with FLJ41550-derived protein (setting [5]). Besides, the “interaction judged from spectrum intensity of the compound in the SEC spin column filtrate (protein fraction eluted from SEC)” value with FLJ41550-derived protein (setting [6]) is recorded as “concentration-dependent interaction”. Besides, the “FLJ No of the derived protein” value in assay [1] was “FLJ37909; also recorded: FLJ41550”.

On to `OC(c1cc(C(F)(F)F)nc2c(C(F)(F)F)cccc12)C1CCCCN1` (stereo not shown) [mefloquine], for which, on FLJ38897-derived protein, the “interaction judged … in the spin column filtrate” value was “there was an interaction”. Further, the “spectrum intensity of the compound in the SEC spin column filtrate” value turned out to be 16334 at FLJ41991-derived protein (compound 12.5 μM, protein 0 μM); 46239 on FLJ41991-derived protein (compound 12.5 μM, protein 5 μM); 101775 on FLJ41991-derived protein (setting [2]); 453818 at FLJ41991-derived protein (setting [3]); 27931 on FLJ41991-derived protein (compound 25 μM, protein 0 μM); 100287 at FLJ41991-derived protein (compound 25 μM, protein 5 μM). Besides, the “spectrum intensity of the compound in the SEC spin column filtrate” value on FLJ41991-derived protein (compound 25 μM, protein 10 μM) turned out to be 273106; at FLJ41991-derived protein (compound 25 μM, protein 25 μM), 1788847; on FLJ41991-derived protein (compound 62.5 μM, protein 0 μM), 97153; on FLJ41991-derived protein (compound 62.5 μM, protein 5 μM), 528117; at FLJ41991-derived protein (setting [4]) it was 2017157; on FLJ41991-derived protein (setting [5]), 4385022. In addition, on FLJ41991-derived protein, the “interaction judged from spectrum intensity of the compound in the SEC spin column filtrate (protein fraction eluted from SEC)” value is listed as “concentration-dependent interaction”. The “FLJ No of the derived protein” value in assay [1] was “FLJ37909; also recorded: FLJ38897; also recorded: FLJ41991”.

Turning to `CN(C)CC/C=C1/c2ccccc2Sc2ccc(Cl)cc21` [chlorprothixene], the “interaction judged … in the spin column filtrate” value at FLJ38897-derived protein is listed as “there was an interaction”. The “spectrum intensity of the compound in the SEC spin column filtrate” value on FLJ41991-derived protein (compound 12.5 μM, protein 0 μM) worked out at 178622; at FLJ41991-derived protein (compound 12.5 μM, protein 5 μM), 175333; on FLJ41991-derived protein (setting [2]), 226245; at FLJ41991-derived protein (setting [3]), 393132; at FLJ41991-derived protein (compound 25 μM, protein 0 μM) it was 161141; at FLJ41991-derived protein (compound 25 μM, protein 5 μM), 149738. Also, the “spectrum intensity of the compound in the SEC spin column filtrate” value is 277798 at FLJ41991-derived protein (compound 25 μM, protein 10 μM); 490640 at FLJ41991-derived protein (compound 25 μM, protein 25 μM); 156021 on FLJ41991-derived protein (compound 62.5 μM, protein 0 μM); 210998 on FLJ41991-derived protein (compound 62.5 μM, protein 5 μM); 626223 at FLJ41991-derived protein (setting [4]); 2564975 on FLJ41991-derived protein (setting [5]). For the same molecule, the “interaction judged from spectrum intensity of the compound in the SEC spin column filtrate (protein fraction eluted from SEC)” value at FLJ41991-derived protein is on record as “concentration-dependent interaction”. In addition, the “FLJ No of the derived protein” value in assay [1] is “FLJ38897; also recorded: FLJ41991”.

Take `CNCCCC1c2ccccc2C=Cc2ccccc21` [protriptyline]: the “spectrum intensity of the compound in the SEC spin column filtrate” value with FLJ20972-derived protein (compound 12.5 μM, protein 0 μM) was determined as 39179; with FLJ20972-derived protein (compound 12.5 μM, protein 5 μM), 27260; in the assay with FLJ20972-derived protein (setting [2]), 39545; in the assay with FLJ20972-derived protein (setting [3]), 44522; with FLJ20972-derived protein (compound 25 μM, protein 0 μM), 53214; in the assay with FLJ20972-derived protein (compound 25 μM, protein 5 μM), 76771. Also, the “spectrum intensity of the compound in the SEC spin column filtrate” value in the assay with FLJ20972-derived protein (compound 25 μM, protein 10 μM) is on record as 105694; in the assay with FLJ20972-derived protein (compound 25 μM, protein 25 μM), 132099; in the assay on FLJ20972-derived protein (compound 62.5 μM, protein 0 μM), 239324; in the assay with FLJ20972-derived protein (setting [4]), 390017; in the assay on FLJ20972-derived protein (setting [5]), 754873. For the same molecule, the “interaction judged from spectrum intensity of the compound in the SEC spin column filtrate (protein fraction eluted from SEC)” value in the assay with FLJ20972-derived protein (setting [6]) is “concentration-dependent interaction”.

Source of the values: patent US20090143285A1, “TARGET PROTEIN AND TARGET GENE FOR DRUG DISCOVERY AND SCREENING METHOD” (REVERSE PROTEOMICS RESEARCH INSTITUTE CO., LTD., priority 2005, published 2009).
